This passage reports IC50 results from patent US10392630B2, “Plants having increased tolerance to herbicides” (BASF AGRO B.V., priority 2013, dated 2019).

Holding throughout (experiment): biochemical
The target of test [1] is T1, Amaranthus mutant PPO (AMARE) (Amaranthus tuberculatus, UniProt Q0NZW9, F420I).
T1 sequence (Q0NZW9 1-534 F420I): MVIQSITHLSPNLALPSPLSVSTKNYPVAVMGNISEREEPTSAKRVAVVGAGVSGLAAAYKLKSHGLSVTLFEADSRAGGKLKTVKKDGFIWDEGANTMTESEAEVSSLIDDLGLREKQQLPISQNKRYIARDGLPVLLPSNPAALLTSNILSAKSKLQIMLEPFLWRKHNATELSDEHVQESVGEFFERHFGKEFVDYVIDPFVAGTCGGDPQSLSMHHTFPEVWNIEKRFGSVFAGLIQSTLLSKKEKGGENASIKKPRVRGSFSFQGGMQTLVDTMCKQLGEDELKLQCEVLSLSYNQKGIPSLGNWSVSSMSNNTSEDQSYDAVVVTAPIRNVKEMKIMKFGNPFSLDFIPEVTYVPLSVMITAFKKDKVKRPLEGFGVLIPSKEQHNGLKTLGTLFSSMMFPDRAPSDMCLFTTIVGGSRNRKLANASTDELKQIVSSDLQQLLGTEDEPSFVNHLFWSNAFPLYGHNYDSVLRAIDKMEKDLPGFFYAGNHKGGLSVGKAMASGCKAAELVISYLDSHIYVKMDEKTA

The target of test [2] is T2, Amaranthus mutant PPO (AMARE) (Amaranthus tuberculatus, UniProt Q0NZW9, F420L).
T2 sequence (Q0NZW9 1-534 F420L): T1 sequence (Q0NZW9 1-534 F420I) with I420L

For test [3], the target named is T3, Amaranthus mutant PPO (AMARE) (Amaranthus tuberculatus, UniProt Q0NZW9, F420M/R128A).
T3 sequence (Q0NZW9 1-534 R128A/F420M): T1 sequence (Q0NZW9 1-534 F420I) with R128A, I420M

Test [4] deals with T4, Amaranthus mutant PPO (AMARE) (Amaranthus tuberculatus, UniProt Q0NZW9, R128A).
T4 sequence (Q0NZW9 1-534 R128A): T1 sequence (Q0NZW9 1-534 F420I) with R128A, I420F

Test [5] deals with T5, Amaranthus mutant PPO (AMARE) (Amaranthus tuberculatus, UniProt Q0NZW9, R128I).
T5 sequence (Q0NZW9 1-534 R128I): T1 sequence (Q0NZW9 1-534 F420I) with R128I, I420F

Positions count from the first letter of the chain named.

For `CC(C)N(C)S(=O)(=O)NC(=O)c1cc(-n2c(=O)cc(C(F)(F)F)n(C)c2=O)c(F)cc1Cl` [saflufenacil], the IC50 (usually the concentration at which inhibition is half-maximal) in test [1] was 919 nM; in test [2] it was 7.2 µM; in test [3], above 10 µM; in test [4] it was 129 nM; in test [5], 365 nM.
